Measurements taken from patent US6894052B1, “Diarylalkylpiperazines active on the lower urinary tract” (Recordati S.A. Chemical and Pharmaceutical Company, priority 1997, dated 2005).
Where a name gives a salt, the structure may show the parent alone. Read-outs that look alike come from different tables or passages of the source.

What was measured:
[1] = target: T1, human 5-HT1A serotonergic receptor (Homo sapiens, UniProt P08908); test: Radioreceptor binding to recombinant human 5-HT1A receptors ([3H]8-OH-DPAT, HeLa cell membranes)
T1 construct: expressed in transfected cells; host or cells: HeLa (human), stably transfected; cell membranes
T1 sequence (P08908 1-422): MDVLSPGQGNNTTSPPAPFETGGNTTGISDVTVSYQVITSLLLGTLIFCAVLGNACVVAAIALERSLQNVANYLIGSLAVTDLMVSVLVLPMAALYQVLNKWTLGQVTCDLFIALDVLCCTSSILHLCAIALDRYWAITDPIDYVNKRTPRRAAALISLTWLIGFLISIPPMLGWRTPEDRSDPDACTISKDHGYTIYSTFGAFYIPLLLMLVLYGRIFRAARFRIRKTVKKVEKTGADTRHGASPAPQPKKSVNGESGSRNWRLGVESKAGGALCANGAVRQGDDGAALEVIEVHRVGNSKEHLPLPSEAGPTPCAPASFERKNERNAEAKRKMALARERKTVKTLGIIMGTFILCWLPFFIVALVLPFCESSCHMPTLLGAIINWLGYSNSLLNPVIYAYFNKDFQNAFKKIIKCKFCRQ
Method: Genomic clone G-21 coding for the human 5-HT1A serotonergic receptor is stably transfected in a human cell line (HeLa). HeLa cells were grown as monolayers in Dulbecco's modified Eagle's medium (DMEM), supplemented with 10% fetal calf serum and gentamicin ([…]), 5% CO2 at 37° C. Cells were detached from the growth flask at 95% confluence by a cell scraper and were lysed in ice-cold 5 mM Tris and 5 mM EDTA buffer (pH 7.4). Homogenates were centrifuged at 40000×g×20 min and pellets were resuspended in a small volume of ice-cold 5 mM Tris and 5 mM EDTA buffer (pH 7.4) and immediately frozen and stored at −70° C. until use. On the day of experiment, cell membranes were resuspended in binding buffer: 50 mM Tris HCl (pH 7.4), 2.5 mM MgCl2, 10 μM pargyline (Fargin et al., Nature 335, 358-360, 1988). Membranes were incubated in a final volume of 1 ml for 30 min at 30° C. with 0.2-1 nM [^3H]8-OH-DPAT, in absence or presence of competing drugs; non-specific binding was determined in the presence of 10 μM 5-HT. The incubation was stopped by addition of ice-cold Tris-HCl buffer and rapid filtration through 0.2% polyethyleneimine-pretreated Whatman GF/B or Schleieher & Schuell GF52 filters.
(§1) The inhibition of specific binding of the radioligands by the tested drugs was analyzed to estimate the IC50 value by using the non-linear curve-fitting program Allfit (De Lean et al., Am. J. Physiol. 235, E97-E102, 1978). The IC50 value is converted to an affinity constant (Ki) by the equation of Cheng & Prusoff (Cheng, Y. C.; Prusoff, W. H. Biochem. Pharmacol. 22, 3099-3108, 1973).

α1 adrenergic receptors = test: Radioreceptor binding to native α1 adrenergic receptors ([3H]prazosin, rat cerebral cortex membranes)
Method: Binding studies on native α1 adrenergic receptors were carried out in membranes of rat cerebral cortex. Male Sprague Dawley rats (200-300 g, Charles River, Italy) were killed by cervical dislocation and cerebral cortexes were dissected and immediately frozen and stored at −70° C. until use. Tissue was homogenized (2×20 sec) in 50 volumes of cold 50 mM Tris-HCl buffer pH 7.4, using a Polytron homogenizer (speed 7). Homogenates were centrifuged at 48000×g for 10 min, resuspended in 50 volumes of the same buffer, incubated at 37° C. for 15 min and centrifuged and resuspended twice more. The final pellets were suspended in 100 volumes of 50 mM Tris-HCl buffer pH 7.4, containing 10 μM pargyline and 0.1% ascorbic acid. Membranes were incubated in a final volume of 1 ml for 30 min at 25° C. with 0.1-0.5 nM [^3H]prazosin, in the absence or presence of competing drugs; non-specific binding was determined in the presence of 10 μM phentolamine.
The incubation was stopped by addition of ice-cold 50 mM Tris-HCl buffer and rapid filtration through 0.2% polyethyleneimine-pretreated Whatman GF/B or Schleicher & Schuell GF52 filters. The filters were then washed with ice-cold buffer and the radioactivity retained on the filters counted by liquid scintillation spectrometry.
as §1

[2] = target: T2, 5-HT2A serotonergic receptors (Rattus norvegicus, UniProt P14842); test: Radioreceptor binding to native 5-HT2A serotonergic receptors ([3H]ketanserin, rat cerebral cortex membranes)
T2 construct: from tissue; host or cells: cerebral cortex of male Sprague Dawley rats, membranes
T2 sequence (P14842 whole entry): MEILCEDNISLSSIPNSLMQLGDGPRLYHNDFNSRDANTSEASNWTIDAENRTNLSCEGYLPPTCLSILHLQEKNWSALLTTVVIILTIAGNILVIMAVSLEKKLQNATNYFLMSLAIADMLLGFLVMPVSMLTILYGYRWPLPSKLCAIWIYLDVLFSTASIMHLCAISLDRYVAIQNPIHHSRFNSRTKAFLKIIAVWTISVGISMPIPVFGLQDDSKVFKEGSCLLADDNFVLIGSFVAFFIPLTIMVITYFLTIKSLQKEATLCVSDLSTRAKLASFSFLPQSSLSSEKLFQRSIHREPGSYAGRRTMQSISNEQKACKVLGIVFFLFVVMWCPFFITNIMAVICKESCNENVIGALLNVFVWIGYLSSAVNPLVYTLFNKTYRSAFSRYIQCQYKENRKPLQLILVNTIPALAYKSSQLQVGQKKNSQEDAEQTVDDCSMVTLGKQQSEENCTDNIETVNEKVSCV
Method: Binding studies on native 5-HT2A serotonergic receptors (Craig A. and Kenneth J., Life Sci. 38, 117-127, 1986) were carried out in membranes of rat cerebral cortex. Male Sprague Dawley rats (200-300 g, S D Harlan/Nossan, Italy) were killed by cervical dislocation and cerebral cortexes were excised and immediately frozen in liquid nitrogen and stored at −70° C. until use. Tissues were homogenized (2×20 sec) in 50 volumes of cold 50 mM Tris-HCl buffer pH 7.4, using a Polytron homogenizer (speed 7). Homogenates were centrifuged at 49000×g for 10 min, resuspended in 50 volumes of the same buffer, incubated at 37° C. for 15 min and centrifuged and resuspended twice more. The final pellets were suspended in 100 volumes of 50 mM Tris-HCl buffer pH 7.7. Membranes were incubated in a final volume of 1 ml for 20 min at 37° C. with 0.7-1.3 nM [^3H]ketanserin (5-HT2A receptors), in absence or presence of competing drugs. Non-specific binding was determined in the presence of 2 μM ketanserin. The incubation was stopped by addition of ice-cold 50 mM Tris-HCl buffer and rapid filtration through 0.2% polyethyleneimine pretreated Whatman GF/B or Schleicher & Schuell GF52 filters. The filters are then washed with ice-cold buffer and the radioactivity retained on the filters was counted by liquid scintillation spectrometry.
as §1

[3] = test system: rhythmic bladder voiding contractions; test: Volume-induced rhythmic bladder voiding contractions in anaesthetized rats; type: in vivo, rat; conditions: for ED50: Rattus norvegicus; for ED10min: extrapolated dose inducing 10 min of disappearance of the contractions
Method: Female Sprague Dawley rats weighing 225-275 g (Crl: CDo BR, Charles River Italia) were used. The animals were housed with free access to food and water and were maintained on a forced 12 h alternating light-dark cycle at 22-24° C. for at least one week, except during the experiment. The activity on the rhythmic bladder voiding contractions was evaluated according to the method of Dray (J. Pharmacol. Methods, 13:157, 1985), with some modifications as in Guarneri (Pharmacol. Res., 27:173, 1993). Briefly, rats were anesthetized by subcutaneous injection of 1.25 g/kg (5 ml/kg) urethane, after which the urinary bladder was catheterized via the urethra using PE 50 polyethylene tubing filled with physiological saline. The catheter was tied in place with a ligature around the external urethral orifice and was connected with conventional pressure transducers (Statham P23 ID/P23 XL). […] The bladder was then filled via the recording catheter by incremental volumes of warm (37° C.) saline until reflex bladder voiding contractions occurred (usually 0.8-1.5 ml). For intravenous (i.v.) injection of bioactive compounds, PE 50 polyethylene tubing filled with physiological saline was inserted into the jugular vein.
From the cystometrogram, the number of contractions recorded 15 min before (basal values) and after treatment, as well as the mean amplitude of these contractions (mean height of the peaks in mm Hg) was evaluated.
Since most compounds produced an effect that was relatively rapid in onset and led to a complete cessation of bladder contractions, bioactivity was conveniently estimated by measuring the duration of bladder quiescence (i.e., the duration of time during which no contractions occurred). Moreover, the number of animals tested showing a reduction in the number of contractions >30% of that observed in the basal period, was recorded. […] Also computed in this manner were extrapolated doses which induced a reduction of the number of contractions of greater than 30% in 50% of treated rats (ED50, frequency) by the method of Bliss (Bliss C. I., Quart. J. Pharm. Pharmacol. 11, 192-216, 1938). After the suppressive effects of drug injection wore off, the height of the contractile peaks was compared with the height of the peaks previously recorded after the control intravenous administration of vehicle. The potency of the tested compounds (ED50 value, the extrapolated doses inducing a 30% reduction of amplitude of the contractions in 50% of treated rats) was evaluated on a quantal basis by the method of Bliss (Bliss C. I., Quart. J. Pharm. Pharmacol. 11, 192-216, 1938).

[4] = recombinant human receptor in HeLa membranes, [3H]8-OH-DPAT, read-out: Ki 5-HT1A
[5] = rat cerebral cortex membranes, [3H]ketanserin, read-out: Ki 5-HT2A
[6] = intravenous administration, anaesthetized rats, extrapolated dose inducing a reduction of the number of contractions >30% in 50% of treated rats, read-out: ED50 (frequency)
[7] = intravenous administration, anaesthetized rats
[8] = intravenous administration, anaesthetized rats, extrapolated dose inducing 30% reduction of amplitude of the contractions in 50% of treated rats, n.a. = not active, no significant reduction of the height of peaks, read-out: ED50 (amplitude)

| Compound | Ki [1, 4] [nM] | Ki (α1 adrenergic receptors) [nM] | Ki [2, 5] [nM] | Ki [1] [nM] | ED50 [3, 6] [mg/kg] | ED10min [3, 7] [mg/kg] | also measured |
| --- | --- | --- | --- | --- | --- | --- | --- |
| COc1ccccc1N1CCN(CCC(c2ccccc2)c2ccccc2)CC1 [Ex. 1, 1-(3,3-diphenylpropyl)-4-(2-methoxyphenyl)piperazine hydrochloride] | 3.9 | 145 | 320 |  |  |  |  |
| COc1ccccc1N1CCN(CCC(C(N)=O)(c2ccccc2)c2ccccn2)CC1 (stereo not drawn) [Ex. 10, 1-[3-aminocarbonyl-3-phenyl-3-(2-pyridyl)propyl]-4-(2-methoxyphenyl)piperazine] |  | 1320 | 683 | 19.3 | 0.18 | 0.228 |  |
| CN(C)CCCN1c2ccccc2CCc2ccccc21 [Imipramine, reference compound] |  |  |  |  | 4.93 | > 6 | ED50 [3, 8]: 2.93 mg/kg; effect on the amplitude of the bladder contractions (in words) [3, 7]: did not affect the amplitude of the contractions |
| COc1ccccc1N1CCN(CCC(C#N)(c2ccccc2)c2ccccn2)CC1.Cl.Cl (stereo not drawn) [Ex. 7, 1-[3-cyano-3-phenyl-3-(2-pyridyl)propyl]-4-(2-methoxyphenyl)piperazine dihydrochloride] | 7.7 | 396 |  |  |  | 0.078 | ED50 ([3]; iv, read-out: ED50 (frequency)): 0.018 mg/kg; Ki [2]: 140 nM |
| COc1ccccc1N1CCN(CCC(O)(c2ccccn2)c2ccccn2)CC1 [Ex. 14, 1-[3-hydroxy-3,3-bis-(2-pyridyl)propyl]-4-(2-methoxyphenyl)piperazine] | 0.34 | 114 | > 1000 |  | 0.036 | 0.127 |  |
| COc1ccccc1N1CCN(CCN(c2ccccn2)c2ccccc2[N+](=O)[O-])CC1 [Ex. 11, 1-[N-(2-nitrophenyl)-N-(2-pyridyl)-2-aminoethyl]-4-(2-methoxyphenyl)-piperazine] | 6.74 | 62.5 |  |  | 0.024 | 0.162 |  |
| COc1ccccc1N1CCN(CCC(C(N)=O)(c2ccccn2)c2ccccc2[N+](=O)[O-])CC1 (stereo not drawn) [Ex. 17, 1-[3-aminocarbonyl-3-(2-nitrophenyl)-3-(2-pyridyl)propyl]-4-(2-methoxyphenyl)-piperazine] |  | 307 |  | 5.18 |  |  |  |
| COc1ccccc1N1CCN(CCC(C#N)(c2ccccc2)c2ccccc2[N+](=O)[O-])CC1 (stereo not drawn) [Ex. 12, 1-[3-cyano-3-(2-nitrophenyl)-3-phenylpropyl]-4-(2-methoxyphenyl)piperazine] |  | 226 | 790 | 1.45 |  |  |  |
| COc1ccccc1N1CCN(CCC(C(N)=O)(c2ccccc2)c2ccccc2[N+](=O)[O-])CC1 (stereo not drawn) [Ex. 13, 1-[3-aminocarbonyl-3-(2-nitrophenyl)-3-phenylpropyl]-4-(2-methoxyphenyl)-piperazine] |  | 365 |  | 2.3 | 0.084 |  |  |
| COc1ccccc1N1CCN(CCN(c2ccccn2)c2ccccn2)CC1.Cl [Ex. 5, 1-[N-N-bis-(2-pyridyl)-2-aminoethyl]-4-(2-methoxyphenyl)piperazine hydrochloride] |  |  |  |  |  | 0.523 | ED50 (frequency) ([3]; intravenous administration, anaesthetized rats, extrapolated dose inducing a reduction of the number of contractions >30% in 50% of treated rats): 0.077 mg/kg |
| Cc1c(-c2ccccc2)oc2c(C(=O)OCCN3CCCCC3)cccc2c1=O [Flavoxate, reference compound] |  |  |  |  |  |  | effect on the amplitude of the bladder contractions (in words) [3, 7]: did not affect the amplitude of the contractions; ED10min ([3]; intravenous administration, anaesthetized rats, in µg/kg): >10000 |
| COc1ccccc1N1CCN(CCC(C#N)(c2ccccn2)c2ccccn2)CC1 [Ex. 6, 1-[3-cyano-3,3-bis-(2-pyridyl)propyl]-4-(2-methoxyphenyl)piperazine] |  | 1250 |  | 13.3 | 0.093 | 0.225 |  |
| CCN(CC)CC#CCOC(=O)C(O)(c1ccccc1)C1CCCCC1 (stereo not drawn) [Oxybutynin, reference compound] |  |  |  |  | 10 | 7.77 | ED50 [3, 8]: 0.24 mg/kg |
| c1ccc(C(CCN2CCN(c3cccc4c3OCCO4)CC2)c2ccccc2)cc1 [Ex. 2, 1-(3,3-diphenylpropyl)-4-[5-(2,3-dihydro-1,4-benzodioxinyl)]piperazine methanesulphonate] | 0.6 | 208 | 159 |  |  |  |  |
